Measured values taken from ChEMBL document CHEMBL1201862, “PubChem BioAssay data set” (2004).
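Tested at 5 concentrations; 48 h exposure; 96-well plates; endpoints linearly interpolated, else capped at highest concentration. GI50 marks 50% less growth.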 Calls of active or inactive are those of the source. Cut-off read from the data, not from the text of the source: active = GI50 up to about 1.1 µM and inactive = higher.

Experiments:
Experiment in all cases: DTP human tumour cell line panel, 48 h
SK-MEL-2 = test system: SK-MEL-2
Hs-578T = test system: Hs-578T
SR = test system: SR
SNB-19 = test system: SNB-19
NCI-H23 = test system: NCI-H23
EKVX = test system: EKVX
MOLT-4 = test system: MOLT-4
IGROV-1 = test system: IGROV-1
LOX IMVI = test system: LOX IMVI
ACHN = test system: ACHN
MDA-MB-435 = test system: MDA-MB-435
SF-295 = test system: SF-295
CCRF-CEM = test system: CCRF-CEM
BT-549 = test system: BT-549
SF-539 = test system: SF-539
SK-MEL-28 = test system: SK-MEL-28
K562 = test system: K562
COLO 205 = test system: COLO 205
RXF 393 = test system: RXF 393
OVCAR-4 = test system: OVCAR-4
M14 = test system: M14
SNB-75 = test system: SNB-75
HCC 2998 = test system: HCC 2998
NCI/ADR-RES = test system: NCI/ADR-RES
HCT-116 = test system: HCT-116
T47D = test system: T47D
HOP-62 = test system: HOP-62
UACC-62 = test system: UACC-62
CAKI-1 = test system: CAKI-1
SK-MEL-5 = test system: SK-MEL-5
UO-31 = test system: UO-31
PC-3 = test system: PC-3
RPMI-8226 = test system: RPMI-8226
TK-10 = test system: TK-10
MCF7 = test system: MCF7
DU-145 = test system: DU-145
OVCAR-3 = test system: OVCAR-3
SW-620 = test system: SW-620
U-251 = test system: U-251
SN12C = test system: SN12C
HCT-15 = test system: HCT-15
KM12 = test system: KM12
HL-60 = test system: HL-60
SK-OV-3 = test system: SK-OV-3
OVCAR-5 = test system: OVCAR-5
786-0 = test system: 786-0
NCI-H226 = test system: NCI-H226
NCI-H522 = test system: NCI-H522
HOP-92 = test system: HOP-92
HT-29 = test system: HT-29
UACC-257 = test system: UACC-257
MDA-N = test system: MDA-N
A549 = test system: A549
OVCAR-8 = test system: OVCAR-8
Malme-3M = test system: Malme-3M
SF-268 = test system: SF-268
NCI-H460 = test system: NCI-H460
A498 = test system: A498

Measured: GI50

CC(C)OP(=O)(OC(C)C)C(C(F)(F)F)C(F)(F)F
> 100 µM: HCT-15
inactive: SK-MEL-2 > 100 µM | Hs-578T > 100 µM | SR > 100 µM | SNB-19 > 100 µM | NCI-H23 > 100 µM | EKVX > 100 µM | MOLT-4 > 100 µM | IGROV-1 > 100 µM | LOX IMVI > 100 µM | ACHN > 100 µM | MDA-MB-435 > 100 µM | SF-295 > 100 µM | CCRF-CEM > 100 µM | BT-549 > 100 µM | SF-539 > 100 µM | SK-MEL-28 > 100 µM | K562 > 100 µM | COLO 205 > 100 µM | RXF 393 > 100 µM | OVCAR-4 > 100 µM | M14 > 100 µM | SNB-75 > 100 µM | HCC 2998 > 100 µM | NCI/ADR-RES > 100 µM | HCT-116 > 100 µM | T47D > 100 µM | HOP-62 > 100 µM | UACC-62 > 100 µM | CAKI-1 > 100 µM | SK-MEL-5 > 100 µM | UO-31 > 100 µM | PC-3 > 100 µM | RPMI-8226 > 100 µM | TK-10 > 100 µM | MCF7 > 100 µM | DU-145 > 100 µM | OVCAR-3 > 100 µM | SW-620 > 100 µM | U-251 > 100 µM | SN12C > 100 µM | KM12 > 100 µM | HL-60 > 100 µM | SK-OV-3 > 100 µM | OVCAR-5 > 100 µM | 786-0 > 100 µM | NCI-H226 > 100 µM | NCI-H522 > 100 µM | HOP-92 > 100 µM | HT-29 > 100 µM | UACC-257 > 100 µM | MDA-N > 100 µM | A549 > 100 µM | OVCAR-8 > 100 µM | Malme-3M > 100 µM | SF-268 > 100 µM

CC1(C)O[C@H]2OC(CO[Si](C)(C)C(C)(C)C)C(N=[N+]=[N-])[C@H]2O1 (some centres undefined)
21.1 µM: HCT-15
inactive: SK-MEL-2 17.2 µM | Hs-578T 23.6 µM | SR 12.4 µM | SNB-19 17.7 µM | NCI-H23 19.2 µM | EKVX 22.8 µM | MOLT-4 17 µM | IGROV-1 3.04 µM | LOX IMVI 21 µM | ACHN 18.7 µM | MDA-MB-435 25.8 µM | SF-295 11.8 µM | NCI-H460 26.2 µM | CCRF-CEM 16.6 µM | BT-549 21.6 µM | SF-539 20 µM | SK-MEL-28 24.7 µM | K562 13.3 µM | RXF 393 16.6 µM | OVCAR-4 26.3 µM | M14 19.2 µM | SNB-75 28.4 µM | HCC 2998 17.8 µM | A498 25 µM | NCI/ADR-RES 18.1 µM | HCT-116 15.6 µM | HOP-62 19.2 µM | UACC-62 19.1 µM | CAKI-1 23.8 µM | UO-31 17.2 µM | PC-3 20.3 µM | RPMI-8226 13 µM | TK-10 19.1 µM | MCF7 20.7 µM | OVCAR-3 22.7 µM | SW-620 21.5 µM | U-251 20.6 µM | SN12C 20 µM | KM12 18.7 µM | HL-60 7.31 µM | SK-OV-3 14 µM | OVCAR-5 20.5 µM | 786-0 18.2 µM | NCI-H226 20 µM | HOP-92 23.9 µM | HT-29 12.5 µM | UACC-257 18 µM | MDA-N 23.7 µM | A549 18.2 µM | OVCAR-8 20.1 µM | Malme-3M 17.1 µM | SF-268 20.7 µM
